Experiments:
[1] = tested on: rat monosodium iodoacetate model of knee osteoarthritis; settings: in vivo
[2] = cited from earlier work

| Molecule | weight bearing asymmetry at acute time points on Day 14 versus vehicle [1] | half-life in-vivo [2] |
| --- | --- | --- |
| COc1cc(CNC(=O)CCCC/C=C/C(C)C)ccc1O [CAP, capsaicin] | increased weight bearing asymmetry | – |
| C=C(C)[C@]12C[C@@H](C)[C@@]34O[C@](Cc5ccccc5)(O[C@@H]1[C@@H]3C=C(COC(=O)Cc1ccc(O)c(OC)c1)C[C@]1(O)C(=O)C(C)=C[C@@H]41)O2 [RTX, resiniferatoxin] | increased weight bearing asymmetry | – |
| hyaluronic acid [HA] | – | hours-days |
